Data: patent US20140343000A1 (priority 2011, published 2014)

Tested on: recombinant NL4-3 virus (Renilla luciferase in nef, Gag P373S; NLRluc) in MT-2 cells
Assay: whole plant or invertebrate
Type: cell-based, HIV
Conditions: Renilla, NL43, luciferase activity in cells infected for 4-5 days with NLRluc recombinants, serial dilutions of inhibitor; class symbols (key in Table 1); read-out: EC50
How it was run: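 MT-2 cells infected 4–5 days with NL4-3 carrying Renilla luciferase in nef and Gag P373S, with serial dilutions of inhibitor present. Antiviral activity quantified by luciferase activity, using Dual Luciferase reagents premixed with lysis buffer and read immediately.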

| Structure (SMILES) | EC50 [nM] |
| --- | --- |
| C=C(C)[C@@H]1CC[C@]2(NC(=O)C(c3ccccc3)N3CCS(=O)(=O)CC3)CC[C@]3(C)[C@H](CC[C@@H]4[C@@]5(C)CC=C(c6ccc(C(=O)O)cc6)C(C)(C)[C@@H]5CC[C@]43C)[C@@H]12 (single isomer, unassigned) [Example 91] | < 100 |
| C=C(C)[C@@H]1CC[C@]2(NCCN3CCN(S(=O)(=O)Cc4ccccc4)CC3)CC[C@]3(C)[C@H](CC[C@@H]4[C@@]5(C)CC=C(c6ccc(C(=O)O)cc6)C(C)(C)[C@@H]5CC[C@]43C)[C@@H]12 [Example B41, 4-((1R,3aS,5aR,5bR,7aR,11aS,11bR,13aR,13bR)-3a-((2-(4-(benzylsulfonyl)piperazin-1-yl)ethyl)amino)-5a,5b,8,8,11a-pentamethyl-1-(prop-1-en-2-yl)-2,3,3a,4,5,5a,5b,6,7,7a,8,11,11a,11b,12,13,13a,13b-octadecahydro-1H-cyclopenta[a]chrysen-9-yl)benzoic acid] | < 100 |
| C=C(C)[C@@H]1CC[C@]2(NC(=O)CN3CCN(CCO)CC3)CC[C@]3(C)[C@H](CC[C@@H]4[C@@]5(C)CC=C(c6ccc(C(=O)O)cc6)C(C)(C)[C@@H]5CC[C@]43C)[C@@H]12 [Example 84, 4-((1R,3aS,5aR,5bR,7aR,11aS,11bR,13aR,13bR)-3a-(2-(4-(2-hydroxyethyl)piperazin-1-yl)acetamido)-5a,5b,8,8,11a-pentamethyl-1-(prop-1-en-2-yl)-2,3,3a,4,5,5a,5b,6,7,7a,8,11,11a,11b,12,13,13a,13b-octadecahydro-1H-cyclopenta[a]chrysen-9-yl)benzoic acid] | < 100 |
| C=C(C)[C@@H]1CC[C@]2(NC(=O)NCCCCCN(C)C)CC[C@]3(C)[C@H](CC[C@@H]4[C@@]5(C)CC=C(c6ccc(C(=O)O)cc6)C(C)(C)[C@@H]5CC[C@]43C)[C@@H]12 [Example 60, 4-((1R,3aS,5aR,5bR,7aR,11aS,11bR,13aR,13bR)-3a-(3-(5-(dimethylamino)pentyl)ureido)-5a,5b,8,8,11a-pentamethyl-1-(prop-1-en-2-yl)-2,3,3a,4,5,5a,5b,6,7,7a,8,11,11a,11b,12,13,13a,13b-octadecahydro-1H-cyclopenta[a]chrysen-9-yl)benzoic acid] | < 100 |
| C=C(C)[C@@H]1CC[C@]2(NCCN3CCN(S(=O)(=O)c4ccc(C(=O)O)cc4)CC3)CC[C@]3(C)[C@H](CC[C@@H]4[C@@]5(C)CC=C(c6ccc(C(=O)O)cc6)C(C)(C)[C@@H]5CC[C@]43C)[C@@H]12 [Example B51, 4-((4-(2-(((1R,3aS,5aR,5bR,7aR,11aS,11bR,13aR,13bR)-9-(4-carboxyphenyl)-5a,5b,8,8,11a-pentamethyl-1-(prop-1-en-2-yl)-2,3,3a,4,5,5a,5b,6,7,7a,8,11,11a,11b,12,13,13a,13b-octadecahydro-1H-cyclopenta[a]chrysen-3a-yl)amino)ethyl)piperazin-1-yl)sulfonyl)benzoic acid] | < 100 |
| C=C(C)[C@@H]1CC[C@]2(NC(=O)N(C)CCn3ccc4ccccc43)CC[C@]3(C)[C@H](CC[C@@H]4[C@@]5(C)CC=C(c6ccc(C(=O)O)cc6)C(C)(C)[C@@H]5CC[C@]43C)[C@@H]12 [Example 48, 4-((1R,3aS,5aR,5bR,7aR,11aS,11bR,13aR,13bR)-3a-(3-(2-(1H-indol-1-yl)ethyl)-3-methylureido)-5a,5b,8,8,11a-pentamethyl-1-(prop-1-en-2-yl)-2,3,3a,4,5,5a,5b,6,7,7a,8,11,11a,11b,12,13,13a,13b-octadecahydro-1H-cyclopenta[a]chrysen-9-yl)benzoic acid] | < 100 |
| C=C(C)[C@@H]1CC[C@]2(NCCN3CCN(S(=O)(=O)C(C)C)CC3)CC[C@]3(C)[C@H](CC[C@@H]4[C@@]5(C)CC=C(c6ccc(C(=O)O)cc6)C(C)(C)[C@@H]5CC[C@]43C)[C@@H]12 [Example B26, 4-((1R,3aS,5aR,5bR,7aR,11aS,11bR,13aR,13bR)-3a-((2-(4-(isopropylsulfonyl)piperazin-1-yl)ethyl)amino)-5a,5b,8,8,11a-pentamethyl-1-(prop-1-en-2-yl)-2,3,3a,4,5,5a,5b,6,7,7a,8,11,11a,11b,12,13,13a,13b-octadecahydro-1H-cyclopenta[a]chrysen-9-yl)benzoic acid] | < 100 |
| C=C(C)[C@@H]1CC[C@]2(NCCN3CCN(C(=O)C4CCCCC4)CC3)CC[C@]3(C)[C@H](CC[C@@H]4[C@@]5(C)CC=C(c6ccc(C(=O)O)cc6)C(C)(C)[C@@H]5CC[C@]43C)[C@@H]12 [Example B53, 4-((1R,3aS,5aR,5bR,7aR,11aS,11bR,13aR,13bR)-3a-((2-(4-(cyclohexanecarbonyl)piperazin-1-yl)ethyl)amino)-5a,5b,8,8,11a-pentamethyl-1-(prop-1-en-2-yl)-2,3,3a,4,5,5a,5b,6,7,7a,8,11,11a,11b,12,13,13a,13b-octadecahydro-1H-cyclopenta[a]chrysen-9-yl)benzoic acid] | < 100 |
| C=C(C)[C@@H]1CC[C@]2(N)CC[C@]3(C)[C@H](CC[C@@H]4[C@@]5(C)CC=C(c6ccc(C(=O)O)c(F)c6)C(C)(C)[C@@H]5CC[C@]43C)[C@@H]12 [Example A1, 4-((1R,3aS,5aR,5bR,7aR,11aS,11bR,13aR,13bR)-3a-amino-5a,5b,8,8,11a-pentamethyl-1-(prop-1-en-2-yl)-2,3,3a,4,5,5a,5b,6,7,7a,8,11,11a,11b,12,13,13a,13b-octadecahydro-1H-cyclopenta[a]chrysen-9-yl)-2-fluorobenzoic acid] | < 100 |
| C=C(C)[C@@H]1CC[C@]2(NC(=O)N(C)CCn3ccnc3)CC[C@]3(C)[C@H](CC[C@@H]4[C@@]5(C)CC=C(c6ccc(C(=O)O)cc6)C(C)(C)[C@@H]5CC[C@]43C)[C@@H]12 [Example 25, 4-((1R,3aS,5aR,5bR,7aR,11aS,11bR,13aR,13bR)-3a-(3-(2-(1H-imidazol-1-yl)ethyl)-3-methylureido)-5a,5b,8,8,11a-pentamethyl-1-(prop-1-en-2-yl)-2,3,3a,4,5,5a,5b,6,7,7a,8,11,11a,11b,12,13,13a,13b-octadecahydro-1H-cyclopenta[a]chrysen-9-yl)benzoic acid] | < 100 |
| C=C(C)[C@@H]1CC[C@]2(NC(=O)CN3CCC(F)(F)CC3)CC[C@]3(C)[C@H](CC[C@@H]4[C@@]5(C)CC=C(c6ccc(C(=O)O)cc6)C(C)(C)[C@@H]5CC[C@]43C)[C@@H]12 [Example 118, 4-((1R,3aS,5aR,5bR,7aR,11aS,11bR,13aR,13bR)-3a-(2-(4,4-difluoropiperidin-1-yl)acetamido)-5a,5b,8,8,11a-pentamethyl-1-(prop-1-en-2-yl)-2,3,3a,4,5,5a,5b,6,7,7a,8,11,11a,11b,12,13,13a,13b-octadecahydro-1H-cyclopenta[a]chrysen-9-yl)benzoic acid] | < 100 |
| C=C(C)[C@@H]1CC[C@]2(NC(=O)CN3CCOC3=O)CC[C@]3(C)[C@H](CC[C@@H]4[C@@]5(C)CC=C(c6ccc(C(=O)O)cc6)C(C)(C)[C@@H]5CC[C@]43C)[C@@H]12 [Example 105, 4-((1R,3aS,5aR,5bR,7aR,11aS,11bR,13aR,13bR)-5a,5b,8,8,11a-pentamethyl-3a-(2-(2-oxooxazolidin-3-yl)acetamido)-1-(prop-1-en-2-yl)-2,3,3a,4,5,5a,5b,6,7,7a,8,11,11a,11b,12,13,13a,13b-octadecahydro-1H-cyclopenta[a]chrysen-9-yl)benzoic acid] | < 100 |
| C=C(C)[C@@H]1CC[C@]2(NCCCN3CCS(=O)(=O)CC3)CC[C@]3(C)[C@H](CC[C@@H]4[C@@]5(C)CC=C(c6ccc(C(=O)O)cc6)C(C)(C)[C@@H]5CC[C@]43C)[C@@H]12 [Example 144, 4-[(1R,3aS,5aR,5bR,7aR,11aS,11bR,13aR,13bR)-3a-[[3-(1,1-dioxido-4-thiomorpholinyl)propyl]amino]-2,3,3a,4,5,5a,5b,6,7,7a,8,11,11a,11b,12,13,13a,13b-octadecahydro-5a,5b,8,8,11a-pentamethyl-1-(1-methylethenyl)-1H-cyclopenta[a]chrysen-9-yl]-benzoic acid] | < 100 |
| C=C(C)[C@@H]1CC[C@]2(Nc3nc(CC)cs3)CC[C@]3(C)[C@H](CC[C@@H]4[C@@]5(C)CC=C(c6ccc(C(=O)O)cc6)C(C)(C)[C@@H]5CC[C@]43C)[C@@H]12 [Example 184B, 4-((1R,3aS,5aR,5bR,7aR,11aS,11bR,13aR,13bR)-3a-(4-ethylthiazol-2-ylamino)-5a,5b,8,8,11a-pentamethyl-1-(prop-1-en-2-yl)-2,3,3a,4,5,5a,5b,6,7,7a,8,11,11a,11b,12,13,13a,13b-octadecahydro-1H-cyclopenta[a]chrysen-9-yl)benzoic acid] | < 100 |
| C=C(C)[C@@H]1CC[C@]2(NCCNS(=O)(=O)CCC)CC[C@]3(C)[C@H](CC[C@@H]4[C@@]5(C)CC=C(c6ccc(C(=O)O)cc6)C(C)(C)[C@@H]5CC[C@]43C)[C@@H]12 [Example B34, 4-((1R,3aS,5aR,5bR,7aR,11aS,11bR,13aR,13bR)-5a,5b,8,8,11a-pentamethyl-1-(prop-1-en-2-yl)-3a-((2-(propylsulfonamido)ethyl)amino)-2,3,3a,4,5,5a,5b,6,7,7a,8,11,11a,11b,12,13,13a,13b-octadecahydro-1H-cyclopenta[a]chrysen-9-yl)benzoic acid] | < 100 |

Same assay, conditions: Renilla, NL43, luciferase activity in cells infected for 4-5 days with NLRluc recombinants, serial dilutions of inhibitor; numeric values; read-out: EC50

| Structure (SMILES) | EC50 [nM] |
| --- | --- |
| C=C(C)[C@@H]1CC[C@]2(NCCNc3nccs3)CC[C@]3(C)[C@H](CC[C@@H]4[C@@]5(C)CC=C(c6ccc(C(=O)O)cc6)C(C)(C)[C@@H]5CC[C@]43C)[C@@H]12 [Example 193, 4-((1R,3aS,5aR,5bR,7aR,11aS,11bR,13aR,13bR)-5a,5b,8,8,11a-pentamethyl-1-(prop-1-en-2-yl)-3a-(2-(thiazol-2-ylamino)ethylamino)-2,3,3a,4,5,5a,5b,6,7,7a,8,11,11a,11b,12,13,13a,13b-octadecahydro-1H-cyclopenta[a]chrysen-9-yl)benzoic acid] | 20 |
